# In patent publication US10266544B2, “Aryl substituted aminomethyl spectinomycin analogs as antibacterial agents” (ST. JUDE CHILDREN'S RESEARCH HOSPITAL, INC., priority 2013, dated 2019):
# Structures can show the parent of a compound that is named as a salt.
# Test system: live vaccine strain (LVS) of Francisella tularensis
# Assay: microbe, parasite or virus in culture
# Type: cell-based
# Conditions: introduction of the methyl-linked phenyl ring
smiles,measurement,value
"CN[C@@H]1[C@H](O)[C@H](NC)[C@H]2O[C@]3(O)[C@H](O[C@@H]2[C@H]1O)O[C@H](C)C[C@@]3(O)CNCc1ccccc1 [compound 1, 3′-(R)-3′-(benzylaminomethyl)dihydrospectinomycin Trihydrochloride]",activity against Francisella tularensis LVS,well tolerated
